# Laboratory results from article PMC8877291, “Design and Synthesis of Arylpiperazine Serotonergic/Dopaminergic Ligands with Neuroprotective Properties” (Molecules, 2022).
# Legend:
# [1] = molecular target: T1, serotonin 5-HT2A receptor (Homo sapiens, UniProt P28223); assay: 5-HT2A receptor radioligand competition binding ([3H]-ketanserin); conditions: human cloned receptor, CHO-K1 membranes, 1 nM [3H]-ketanserin; ± S.E.M., n = 3 in duplicate; read-out: Affinity Ki 5-HT2A
# T1 construct: expressed in transfected cells
# T1 sequence (P28223 whole entry): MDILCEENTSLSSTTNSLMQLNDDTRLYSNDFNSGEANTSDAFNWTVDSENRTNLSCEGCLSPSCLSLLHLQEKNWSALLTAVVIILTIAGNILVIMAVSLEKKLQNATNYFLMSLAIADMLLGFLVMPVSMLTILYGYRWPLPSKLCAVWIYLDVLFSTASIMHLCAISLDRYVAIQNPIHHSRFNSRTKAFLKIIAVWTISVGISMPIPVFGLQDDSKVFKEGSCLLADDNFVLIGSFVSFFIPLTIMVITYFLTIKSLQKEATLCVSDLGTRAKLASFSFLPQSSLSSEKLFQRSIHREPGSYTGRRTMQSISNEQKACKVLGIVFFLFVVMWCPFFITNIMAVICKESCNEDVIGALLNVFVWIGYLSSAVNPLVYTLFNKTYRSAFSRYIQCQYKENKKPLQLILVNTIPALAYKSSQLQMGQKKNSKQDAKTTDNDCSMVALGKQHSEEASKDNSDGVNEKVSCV
# dopamine D1 receptor = molecular target: T2, dopamine D1 receptor (Homo sapiens, UniProt P21728); assay: Dopamine D1 receptor competition binding ([3H]-SCH23390); conditions: HEK-293 membranes, [3H]-SCH23390 0.3 nM, mean (CI 95%), read-out: Affinity Ki D1
# T2 construct: expressed in transfected cells
# T2 sequence (P21728 whole entry): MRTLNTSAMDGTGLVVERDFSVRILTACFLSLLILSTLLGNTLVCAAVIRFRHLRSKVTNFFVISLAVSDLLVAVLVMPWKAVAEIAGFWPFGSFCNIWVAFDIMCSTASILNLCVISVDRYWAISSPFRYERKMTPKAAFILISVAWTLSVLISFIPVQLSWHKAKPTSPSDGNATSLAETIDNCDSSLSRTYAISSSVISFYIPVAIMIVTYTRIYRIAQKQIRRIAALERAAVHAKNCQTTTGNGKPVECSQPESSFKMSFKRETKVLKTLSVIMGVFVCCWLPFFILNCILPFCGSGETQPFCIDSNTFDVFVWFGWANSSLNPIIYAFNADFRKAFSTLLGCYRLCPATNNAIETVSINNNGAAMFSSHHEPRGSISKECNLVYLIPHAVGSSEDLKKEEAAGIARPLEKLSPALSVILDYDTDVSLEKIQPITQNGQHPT
# Description: (§1) The final compounds were tested for their affinity at serotonin 5-HT1A, 5-HT2A, and 5-HT7 receptors and at dopamine D1, D2, D3, and D5 receptors. As a first step, competition radioligand binding assays were carried out for all the compounds at the single concentration of 10 µM, on membrane preparations from stable cell lines heterologously expressing the human cloned 5-HT1A, 5-HT2A, or 5-HT7 receptors. […] For the affinity determination at dopamine receptor subtypes, membrane fractions of human dopamine D2s, D3, D1, and D5 receptor-expressing cells were used. They were co-incubated with [^3H]spiperone (for D2s and D3 receptor) or [^3H]SCH23390 (for D1 and D5 receptor) and appropriate concentrations of test compound for 120 min. Bound radioligand was separated from the free ligand using filtration. Radioactivity was measured by liquid scintillation counting.
# (§2) The affinity for dopamine D1 and D5 receptors was evaluated in membrane fractions of HEK-293 cells stably expressing the human dopamine D1 or D5 receptor. HEK-293-D1 cells were cultured in DMEM/F12 (15 mM HEPES, 1.2 g/L NaHCO3) with 10% (v/v) FBS and 1% (v/v) L-glutamine. HEK-293-D5 cells were cultured in DMEM/F12 (with L-glutamine, 1.2 g/L NaHCO3) with 20% (v/v) FBS. Preparation of membrane fractions and radioligand competition assays were performed as previously described. Briefly, membrane fractions were co-incubated with [^3H]-SCH23390 (0.3 nM) and different concentrations of test compound for 120 min at room temperature. Fluphenazine (100 µM) was used to determine non-specific binding and as reference compound.
# (§3) Data of at least three independent experiments in triplicate were analyzed using GraphPad Prism 8.1 (San Diego, CA, USA). Binding curves were fitted to a non-linear regression model (one-site competition). Ki values were calculated from IC50 values using the Cheng–Prusoff equation. The statistical calculations were performed on –log(Ki).
# dopamine D2s receptor = dopamine D2s receptor (Homo sapiens, UniProt P14416); assay: Dopamine D2s receptor competition binding ([3H]spiperone)
# dopamine D2s receptor, sequence (P14416 1-414 isoform P14416-2): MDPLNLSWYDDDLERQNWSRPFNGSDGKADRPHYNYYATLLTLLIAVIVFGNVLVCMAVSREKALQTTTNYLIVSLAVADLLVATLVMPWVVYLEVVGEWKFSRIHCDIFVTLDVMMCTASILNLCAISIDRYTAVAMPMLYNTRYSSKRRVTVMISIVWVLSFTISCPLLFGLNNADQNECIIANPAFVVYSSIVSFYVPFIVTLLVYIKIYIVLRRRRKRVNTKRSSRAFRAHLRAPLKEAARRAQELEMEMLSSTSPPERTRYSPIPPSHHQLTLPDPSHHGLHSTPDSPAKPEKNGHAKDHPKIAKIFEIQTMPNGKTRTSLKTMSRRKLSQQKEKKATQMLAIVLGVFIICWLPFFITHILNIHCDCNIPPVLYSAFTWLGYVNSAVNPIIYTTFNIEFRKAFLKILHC
# Description: (§4) Competition binding experiments at dopamine D2s and D3 receptor were performed to determine the affinity of the compounds. […] Membrane preparations of transfected CHO-K1 cells stably expressing the human D2s or D3 receptor were performed according to Bautista-Aguilera et al. [26]. The competition binding experiments were conducted as previously reported [26, 27]. Briefly, membrane fractions (D2sR: 25 µg/200 µL; D3R: 20 µg/200 µL) were incubated with [^3H]spiperone (0.2 nM) and test compound for 120 min at room temperature. […] Non-specific binding was determined in the presence of 10 µM haloperidol. Haloperidol was also used as reference compound. Separation of the bound ligand from the free ligand was conducted by filtration through GF/B filters using deionized water.
# [2] = molecular target: T3, serotonin 5-HT7 receptor (5-HT7A) (Homo sapiens, UniProt P34969); assay: 5-HT7 receptor radioligand competition binding ([3H]-SB269970); conditions: human cloned 5-HT7A receptor, HEK293 membranes, 2 nM [3H]-SB269970; ± S.E.M., n = 3 in duplicate; read-out: Affinity Ki 5-HT7
# T3 construct: expressed in transfected cells
# T3 sequence (P34969 1-445 isoform P34969-2): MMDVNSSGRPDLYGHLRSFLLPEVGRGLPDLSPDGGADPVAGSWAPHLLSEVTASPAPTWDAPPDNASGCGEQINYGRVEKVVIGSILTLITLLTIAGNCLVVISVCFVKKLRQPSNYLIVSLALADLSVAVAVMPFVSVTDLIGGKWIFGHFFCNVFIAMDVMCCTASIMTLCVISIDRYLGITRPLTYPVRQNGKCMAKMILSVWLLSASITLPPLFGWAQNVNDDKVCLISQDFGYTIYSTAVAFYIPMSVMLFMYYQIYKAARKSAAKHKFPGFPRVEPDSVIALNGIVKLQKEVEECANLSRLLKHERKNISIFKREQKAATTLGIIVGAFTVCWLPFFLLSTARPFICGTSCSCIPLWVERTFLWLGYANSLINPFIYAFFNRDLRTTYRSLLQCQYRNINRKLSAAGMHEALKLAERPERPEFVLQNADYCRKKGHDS
# Description: as §1, with “As” for “The final compounds were tested for their affinity at serotonin 5-HT1A, 5-HT2A, and 5-HT7 receptors and at dopamine D1, D2, D3, and D5 receptors. As”
# The affinity of the compounds for serotonin 5-HT7 receptor was evaluated in membrane preparations from HEK293 cells stably expressing the human cloned 5-HT7A receptor, following previously described procedures with minor modifications. Competition binding experiments were performed using 2 nM [^3H]-SB269970 (34.5 Ci/mmol, 0.25 mCi/mL, Perkin Elmer NET1198U250UC) as radioligand. […] Methiothepine was included in the assays as reference compound. Assays were carried out in duplicate in 96-well assay plates, in assay buffer (50 mM Tris-HCl, 4 mM MgCl2, 1 mM ascorbic acid, 0.1 mM pargyline, pH = 7.4). Assay mixtures were incubated at 37 °C for 60 min, followed by filtration through GF/C glass filter plates, and washing with ice-cold assay buffer. Affinity (equilibrium dissociation constant, Ki) of the compounds was calculated from competition binding curves as indicated above.
# [3] = molecular target: T4, serotonin 5-HT1A receptor (Homo sapiens, UniProt P08908); assay: 5-HT1A receptor radioligand competition binding ([3H]-8-Hydroxy-DPAT); conditions: human cloned receptor, HEK293 membranes, 1 nM [3H]-8-Hydroxy-DPAT; ± S.E.M., n = 3 in duplicate; read-out: Affinity Ki 5-HT1A
# T4 construct: expressed in transfected cells
# T4 sequence (P08908 1-422): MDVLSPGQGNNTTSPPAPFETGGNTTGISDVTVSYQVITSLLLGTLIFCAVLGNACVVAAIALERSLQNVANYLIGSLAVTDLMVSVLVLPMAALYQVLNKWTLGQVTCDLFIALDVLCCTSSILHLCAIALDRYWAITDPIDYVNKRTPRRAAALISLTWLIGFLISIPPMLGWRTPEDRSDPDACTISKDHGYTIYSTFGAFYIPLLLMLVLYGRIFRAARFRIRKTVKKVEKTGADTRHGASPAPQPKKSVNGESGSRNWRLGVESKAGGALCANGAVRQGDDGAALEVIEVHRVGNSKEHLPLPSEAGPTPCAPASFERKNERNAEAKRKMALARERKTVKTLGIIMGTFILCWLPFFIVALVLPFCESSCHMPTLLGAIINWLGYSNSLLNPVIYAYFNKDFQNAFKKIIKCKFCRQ
# Description: as §1, with “As” for “The final compounds were tested for their affinity at serotonin 5-HT1A, 5-HT2A, and 5-HT7 receptors and at dopamine D1, D2, D3, and D5 receptors. As”
# The affinity of the compounds for serotonin 5-HT1A receptor was evaluated in membrane preparations from HEK293 cells stably expressing the human cloned receptor, following previously described procedures with minor modifications. Competition binding experiments were performed using 1 nM [^3H]-8-Hydroxy-DPAT (1 mCi/mL, PerkinElmer NET929250UC) as radioligand. Nonspecific binding was assessed in the presence of 10 µM serotonin. […] Assays were carried out in duplicate in 96-well assay plates, in assay buffer (50 mM Tris-HCl, 5 mM MgSO4, pH = 7.4). Assay mixtures were incubated at 37 °C for 120 min, followed by filtration through GF/C glass filter plates, and washed with ice-cold wash buffer (50 mM Tris-HCl, pH = 7.4).
# dopamine D3 receptor = dopamine D3 receptor (Homo sapiens, UniProt P35462); assay: Dopamine D3 receptor competition binding ([3H]spiperone)
# dopamine D3 receptor, sequence (P35462 whole entry): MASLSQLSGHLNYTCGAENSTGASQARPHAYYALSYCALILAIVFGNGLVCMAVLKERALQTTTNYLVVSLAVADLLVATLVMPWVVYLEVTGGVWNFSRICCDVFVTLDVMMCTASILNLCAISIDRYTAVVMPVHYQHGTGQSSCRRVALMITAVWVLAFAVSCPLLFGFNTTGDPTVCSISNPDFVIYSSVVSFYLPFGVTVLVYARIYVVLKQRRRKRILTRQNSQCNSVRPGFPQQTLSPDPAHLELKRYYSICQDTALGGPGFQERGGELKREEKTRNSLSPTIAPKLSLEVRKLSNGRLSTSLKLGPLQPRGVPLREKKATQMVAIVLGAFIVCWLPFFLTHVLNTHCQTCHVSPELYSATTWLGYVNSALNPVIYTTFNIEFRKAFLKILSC
# Description: as §4
# [4] = Stability assay in rat liver microsomes; format: in vitro ADME; conditions: pH 7.4; rat liver microsomes, 30 min incubation, NADPH-regenerating system, 10 μM; read-out: Metabolic Stability (percentage of recovery of the parent compound)
# Description: To evaluate the susceptibility to first-pass oxidative metabolism, the leading cause of metabolic degradation in vivo [17] the target compounds were incubated with rat liver microsomes. The turnover of the parent compound was assessed as the percentage of the parent compound recovered after 30 min of incubation with microsomes in the presence of an NADPH-regenerating system.
# Test compounds were pre-incubated at 37 °C with rat liver microsomes (Tebu-Bio, Milan, Italy) (1.0 mg/mL microsomal protein) at 10 μM final concentration in 100 mM potassium phosphate buffer (pH 7.4) for 10 min. Metabolic reactions were initiated by the addition of the NADPH regenerating system (containing 10 mM NADP, 50 mM glucose-6-phosphate, and 10 unit/mL glucose-6-phosphate dehydrogenase, final glucose-6-phosphate dehydrogenase concentration, 1 unit/mL). After 30 min incubation, the reaction mixture was quenched by adding an equal volume of cold acetonitrile containing the internal standard. A test compound incubated with microsomes without NADPH regenerating system was included. Quenched samples were centrifuged at 4500 rpm for 15 min and the supernatants were injected for quantification analysis. Samples (100 μL) were analyzed by using an Agilent 1260 Infinity Binary LC System equipped with a diode array detector (Open Lab software was used to analyze the chromatographic data) and a Phenomenex Gemini C-18 column (250 mm × 4.6 mm, 5 μm particle size). The samples were eluted using CH3CN/20 mM ammonium formate pH 5.5 (7:3, v/v) as eluent (volumetric flow rate =1 mL/min). Concentrations were quantified by measuring the area under the peak.
# The percentage of the parent compound remaining after a 30-min incubation was calculated according to the equation:% of parent compound remaining after 30 min = Cparent/Ccontrol × 100(1) where Cparent is ligand concentration after incubation with microsome fraction and NADPH regenerating system and Ccontrol is ligand concentration after incubation with microsome fraction only.
# dopamine D5 receptor = molecular target: T5, dopamine D5 receptor (Homo sapiens, UniProt P21918); assay: Dopamine D5 receptor competition binding ([3H]-SCH23390); conditions: HEK-293 membranes, [3H]-SCH23390 0.3 nM, mean (CI 95%), read-out: Affinity Ki D5
# T5 construct: expressed in transfected cells
# T5 sequence (P21918 whole entry): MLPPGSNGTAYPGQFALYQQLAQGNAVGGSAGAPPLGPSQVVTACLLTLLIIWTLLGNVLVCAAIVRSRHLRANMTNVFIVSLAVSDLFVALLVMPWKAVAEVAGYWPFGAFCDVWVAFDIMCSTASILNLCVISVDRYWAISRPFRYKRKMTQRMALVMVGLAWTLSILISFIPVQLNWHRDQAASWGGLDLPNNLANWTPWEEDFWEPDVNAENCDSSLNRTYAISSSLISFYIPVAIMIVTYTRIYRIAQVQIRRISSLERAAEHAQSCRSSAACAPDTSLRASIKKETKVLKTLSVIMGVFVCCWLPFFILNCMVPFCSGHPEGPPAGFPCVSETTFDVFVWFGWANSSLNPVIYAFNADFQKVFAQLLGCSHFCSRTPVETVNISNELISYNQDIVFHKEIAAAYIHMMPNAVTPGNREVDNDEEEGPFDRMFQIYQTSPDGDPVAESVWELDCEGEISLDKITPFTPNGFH
# Description: as §1, §2, §3
smiles,measurement,setting,value
"COc1ccc(-c2cc(F)ccc2N2CCN(CCCn3ncc(=O)n(C)c3=O)CC2)cc1 [Compound 9a, 2-(3-(4-(5-Fluoro-4’-methoxy-[1,1’-biphenyl]-2-yl)piperazin-1-yl)propyl)-4-methyl-1,2,4-triazine-3,5(2H,4H)-dione]",Ki,[1],49.1 ± 12 nM
same,Ki,dopamine D1 receptor,193 nM
same,Ki,dopamine D2s receptor,> 10000 nM
same,Ki,[2],60.8 ± 7.1 nM
same,Ki,[3],653 ± 95 nM
same,Ki,dopamine D3 receptor,> 10000 nM
same,"remaining at 30 min, 10 μM",[4],< 3%
same,Ki,dopamine D5 receptor,413 nM
